Test results: ChEMBL document CHEMBL1201862, “PubChem BioAssay data set” (2004)
Active and inactive are the calls of the source.

Assays:
[1] = target: T1, Tyrosine-protein phosphatase non-receptor type 7 (Homo sapiens, UniProt P35236); assay: Dose Response confirmation of compounds that inhibit HePTP. [Related pubchem assays (depositor defined):AID1059, AID1661, AID2085]; assay type: functional
T1 sequence (P35236 whole entry): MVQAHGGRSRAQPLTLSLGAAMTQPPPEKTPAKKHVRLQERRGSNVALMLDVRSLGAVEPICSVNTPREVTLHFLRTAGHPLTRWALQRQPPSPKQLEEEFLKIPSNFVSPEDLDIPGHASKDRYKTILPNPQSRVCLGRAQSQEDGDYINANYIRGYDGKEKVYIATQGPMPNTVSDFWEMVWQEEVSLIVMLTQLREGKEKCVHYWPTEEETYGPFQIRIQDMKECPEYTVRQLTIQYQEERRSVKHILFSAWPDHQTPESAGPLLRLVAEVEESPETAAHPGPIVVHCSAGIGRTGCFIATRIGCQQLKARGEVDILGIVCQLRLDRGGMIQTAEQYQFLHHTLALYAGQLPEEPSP

[2] = target: Photoreceptor-specific nuclear receptor (Homo sapiens, UniProt Q9Y5X4); assay: NR2E3 inverse agonists, dose response, biochemical, TR-FRET (AID 463256); assay type: functional
[3] = target: Peroxisome proliferator-activated receptor gamma/Nuclear receptor corepressor 2 (Homo sapiens, UniProt P37231+Q9Y618); assay: Counterscreen for NR2E3 inverse agonists: TR-FRET-based biochemical high throughput dose response assay to identify inverse agonists of the interaction between peroxisome proliferator-activated receptor gamma (PPARg) and nuclear receptor co-repressor 2 (NCOR2).; assay type: functional
[4] = target: T2, Dual specificity protein phosphatase 3 (Homo sapiens, UniProt P51452); assay: Dose Response Confirmation of compounds that inhibit VHR1 in Fluorescent Assay. [Related pubchem assays (depositor defined):AID1661, AID1878]; assay type: functional
[5] = target: T3, Polyadenylate-binding protein 1 (Homo sapiens, UniProt P11940); assay: PABP poly(A) RNA binding inhibitors, primary screen, biochemical, fluorescence polarization, uHTS (AID 2014)
[6] = target: T4, Eukaryotic translation initiation factor 4H (Homo sapiens, UniProt Q15056); assay: human eIF4H binding inhibitors, primary screen, translation initiation inhibitor project, biochemical, uHTS, fluorescence polarization (AID 2012)
[7] = target: DNA dC->dU-editing enzyme APOBEC-3G (Homo sapiens, UniProt Q9HC16); assay type: functional;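 also: Dose-response counterscreen measuring inhibition of APOBEC3G DNA deaminase activity, run while confirming APOBEC3A inhibitors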
[8] = target: DNA dC->dU-editing enzyme APOBEC-3A (Homo sapiens, UniProt P31941); assay: Dose Response confirmation of small molecule APOBEC3A DNA Deaminase Inhibitors via a fluorescence-based single-stranded DNA deaminase assay. [Related pubchem assays (depositor defined):AID493011, AID493024]; assay type: functional
[9] = target: Nucleotide-binding oligomerization domain-containing protein 2 (Homo sapiens, UniProt Q9HC29); assay: PubChem AID 2334; assay type: functional
[10] = target: T5, Nucleotide-binding oligomerization domain-containing protein 1 (Homo sapiens, UniProt Q9Y239); assay: NOD1 signaling inhibitors, SAR follow-up, revised (AID 2333); assay type: functional
T5 sequence (Q9Y239 whole entry): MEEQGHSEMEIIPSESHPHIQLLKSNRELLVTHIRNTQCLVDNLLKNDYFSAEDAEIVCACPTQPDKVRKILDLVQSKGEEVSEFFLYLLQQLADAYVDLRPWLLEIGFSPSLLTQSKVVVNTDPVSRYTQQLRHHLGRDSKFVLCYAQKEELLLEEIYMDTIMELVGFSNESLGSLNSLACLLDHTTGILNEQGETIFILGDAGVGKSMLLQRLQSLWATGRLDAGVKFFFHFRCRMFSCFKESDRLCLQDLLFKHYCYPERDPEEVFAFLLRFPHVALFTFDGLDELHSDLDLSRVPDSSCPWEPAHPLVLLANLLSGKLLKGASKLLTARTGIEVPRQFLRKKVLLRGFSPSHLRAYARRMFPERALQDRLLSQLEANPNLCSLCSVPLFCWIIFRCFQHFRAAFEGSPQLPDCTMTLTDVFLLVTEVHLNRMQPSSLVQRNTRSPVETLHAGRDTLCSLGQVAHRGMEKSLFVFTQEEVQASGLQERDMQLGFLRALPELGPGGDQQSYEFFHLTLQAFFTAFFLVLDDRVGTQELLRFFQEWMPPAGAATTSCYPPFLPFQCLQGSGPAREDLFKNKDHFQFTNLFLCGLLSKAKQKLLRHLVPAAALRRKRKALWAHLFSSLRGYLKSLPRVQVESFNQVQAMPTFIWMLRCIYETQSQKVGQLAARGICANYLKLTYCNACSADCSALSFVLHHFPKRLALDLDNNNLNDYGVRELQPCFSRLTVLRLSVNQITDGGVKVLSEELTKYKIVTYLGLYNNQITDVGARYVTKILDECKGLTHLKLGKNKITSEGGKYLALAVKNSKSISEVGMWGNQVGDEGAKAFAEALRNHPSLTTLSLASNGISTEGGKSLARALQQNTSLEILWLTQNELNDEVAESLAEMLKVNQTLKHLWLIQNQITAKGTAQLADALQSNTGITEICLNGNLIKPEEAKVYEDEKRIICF

Tumor necrosis factor = Tumor necrosis factor (Homo sapiens, UniProt P01375); assay: TNFa-triggered NF-kB activation inhibitors, SAR follow-up, cell-based, revised (AID 2337); assay type: functional
HEK293 = assay: cells; conditions: Homo sapiens;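 also: cells exposed to compound for 14 hours overnight before viability readout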
Interleukin-8 [11] = target: T6, Interleukin-8 (Homo sapiens, UniProt P10145); assay: SAR analysis of GM-Tri-DAP induced IL-8 secretion in MCF-7/NOD1 cells - Set 2. [Related pubchem assays (depositor defined):AID1575, AID1578, AID2333]; assay type: functional, cell-based
T6 sequence (P10145 whole entry): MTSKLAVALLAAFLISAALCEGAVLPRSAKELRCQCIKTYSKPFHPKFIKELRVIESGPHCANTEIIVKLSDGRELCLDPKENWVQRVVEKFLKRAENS

Interleukin-8 [12] = target: T6, Interleukin-8; assay: SAR analysis of Tumor necrosis factor alpha (TNF-alpha) induced IL-8 secretion in MCF-7/NOD1 cells - Set 2. [Related pubchem assays (depositor defined):AID1575, AID2250, AID2260]; assay type: functional, cell-based
[13] = target: T3, Polyadenylate-binding protein 1; assay: PABP inhibition in translation initiation, SAR follow-up (AID 435018); assay type: functional
[14] = StAR promoter reporter inhibition counter-screen, dose response, counter-screen for LRH-1 inverse agonist project, cell-based, luminescence, luciferase reporter (AID 651969); assay type: functional
Steroidogenic factor 1 = Steroidogenic factor 1 (Homo sapiens, UniProt Q13285); assay: Counterscreen for inverse agonists of the liver receptor homolog-1 (LRH-1; NR5A2): Luminescence-based cell-based high throughput dose response assay to identify inverse agonists of the Steroidogenic Factor 1 Nuclear Receptor (SF1; NR5A1).; assay type: functional
[15] = target: Nuclear receptor subfamily 5 group A member 2 (Homo sapiens, UniProt O00482); assay type: functional, cell-based;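 also: HEK293T cells transfected with LRH-1 and a StAR promoter luciferase reporter; potency for inhibitors that lower LRH-1 driven reporter light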
[16] = target: T4, Eukaryotic translation initiation factor 4H; assay: eIF4H inhibition in translation initiation, SAR follow-up (AID 435011); assay type: functional
[17] = target: T7, Intestinal-type alkaline phosphatase (Homo sapiens, UniProt P09923); assay: human intestinal alkaline phosphatase activators, dose response, biochemical, luminescence, uHTS hits (AID 463120); assay type: functional
[18] = target: T7, Intestinal-type alkaline phosphatase; assay: Dose Response confirmation of uHTS hits from a small molecule inhibitors of human intestinal alkaline phosphatase via a luminescent assay. [Related pubchem assays (depositor defined):AID2544, AID2574]; assay type: functional
[19] = target: T2, Dual specificity protein phosphatase 3; assay: VHR1 inhibitor Ki determination, SAR follow-up, biochemical, colorimetric (AID 2004)

T7 sequence (P09923 whole entry): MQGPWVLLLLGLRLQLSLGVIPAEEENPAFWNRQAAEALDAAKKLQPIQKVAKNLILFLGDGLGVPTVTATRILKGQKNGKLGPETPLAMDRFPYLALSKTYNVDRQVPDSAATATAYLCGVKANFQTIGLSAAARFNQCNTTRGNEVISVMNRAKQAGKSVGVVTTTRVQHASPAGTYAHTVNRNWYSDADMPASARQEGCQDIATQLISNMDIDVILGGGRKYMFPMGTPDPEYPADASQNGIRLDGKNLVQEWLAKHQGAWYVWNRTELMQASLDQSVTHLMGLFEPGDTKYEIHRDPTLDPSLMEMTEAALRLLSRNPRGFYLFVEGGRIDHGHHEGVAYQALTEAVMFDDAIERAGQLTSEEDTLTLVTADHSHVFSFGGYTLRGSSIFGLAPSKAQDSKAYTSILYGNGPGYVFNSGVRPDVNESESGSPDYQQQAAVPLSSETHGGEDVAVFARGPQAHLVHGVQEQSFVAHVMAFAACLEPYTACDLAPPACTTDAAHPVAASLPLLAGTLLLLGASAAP
T3 sequence (P11940 whole entry): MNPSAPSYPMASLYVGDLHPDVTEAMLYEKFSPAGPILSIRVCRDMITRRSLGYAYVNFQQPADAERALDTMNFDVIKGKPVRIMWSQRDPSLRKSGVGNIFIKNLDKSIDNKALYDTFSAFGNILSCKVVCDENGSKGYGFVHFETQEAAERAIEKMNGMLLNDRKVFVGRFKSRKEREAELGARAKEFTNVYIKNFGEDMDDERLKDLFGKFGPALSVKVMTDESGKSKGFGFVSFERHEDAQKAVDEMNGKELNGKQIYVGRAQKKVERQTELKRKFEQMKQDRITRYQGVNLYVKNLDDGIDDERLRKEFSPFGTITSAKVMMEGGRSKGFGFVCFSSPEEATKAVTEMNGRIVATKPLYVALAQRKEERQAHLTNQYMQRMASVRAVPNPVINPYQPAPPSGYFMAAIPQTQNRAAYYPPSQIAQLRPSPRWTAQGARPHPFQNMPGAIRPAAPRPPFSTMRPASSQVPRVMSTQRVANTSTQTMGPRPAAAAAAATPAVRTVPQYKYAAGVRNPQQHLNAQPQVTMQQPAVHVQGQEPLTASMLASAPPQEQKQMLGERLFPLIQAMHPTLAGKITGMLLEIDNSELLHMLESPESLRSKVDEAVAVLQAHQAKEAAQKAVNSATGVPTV
T2 sequence (P51452 whole entry): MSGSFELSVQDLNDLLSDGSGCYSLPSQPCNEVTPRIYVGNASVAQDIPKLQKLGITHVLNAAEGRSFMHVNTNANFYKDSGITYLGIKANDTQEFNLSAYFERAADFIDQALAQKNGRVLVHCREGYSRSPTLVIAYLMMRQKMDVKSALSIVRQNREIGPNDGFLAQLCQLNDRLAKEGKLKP
Photoreceptor-specific nuclear receptor, sequence (Q9Y5X4 whole entry): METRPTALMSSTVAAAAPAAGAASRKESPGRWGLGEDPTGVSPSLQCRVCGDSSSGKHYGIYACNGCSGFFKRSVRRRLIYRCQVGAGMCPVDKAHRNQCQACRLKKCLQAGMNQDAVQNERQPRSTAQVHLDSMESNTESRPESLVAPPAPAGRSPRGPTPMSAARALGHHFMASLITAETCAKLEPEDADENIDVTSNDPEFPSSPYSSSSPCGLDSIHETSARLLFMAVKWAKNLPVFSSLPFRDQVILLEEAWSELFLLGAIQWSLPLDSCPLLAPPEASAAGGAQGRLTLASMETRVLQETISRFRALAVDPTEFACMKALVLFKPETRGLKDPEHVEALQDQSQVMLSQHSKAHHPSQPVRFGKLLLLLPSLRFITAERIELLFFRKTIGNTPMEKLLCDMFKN
DNA dC->dU-editing enzyme APOBEC-3G, sequence (Q9HC16 whole entry): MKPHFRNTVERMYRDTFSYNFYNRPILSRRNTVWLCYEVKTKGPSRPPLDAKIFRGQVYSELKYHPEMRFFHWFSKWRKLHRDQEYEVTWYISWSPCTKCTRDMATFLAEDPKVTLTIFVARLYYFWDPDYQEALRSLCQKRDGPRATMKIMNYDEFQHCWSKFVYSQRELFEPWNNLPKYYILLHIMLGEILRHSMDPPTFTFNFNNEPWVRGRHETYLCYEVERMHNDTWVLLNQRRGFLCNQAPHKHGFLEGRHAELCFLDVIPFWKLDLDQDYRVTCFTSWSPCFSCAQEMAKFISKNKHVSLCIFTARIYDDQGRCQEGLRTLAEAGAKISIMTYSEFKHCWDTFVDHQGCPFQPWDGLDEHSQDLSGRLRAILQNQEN
Nuclear receptor subfamily 5 group A member 2, sequence (O00482 whole entry): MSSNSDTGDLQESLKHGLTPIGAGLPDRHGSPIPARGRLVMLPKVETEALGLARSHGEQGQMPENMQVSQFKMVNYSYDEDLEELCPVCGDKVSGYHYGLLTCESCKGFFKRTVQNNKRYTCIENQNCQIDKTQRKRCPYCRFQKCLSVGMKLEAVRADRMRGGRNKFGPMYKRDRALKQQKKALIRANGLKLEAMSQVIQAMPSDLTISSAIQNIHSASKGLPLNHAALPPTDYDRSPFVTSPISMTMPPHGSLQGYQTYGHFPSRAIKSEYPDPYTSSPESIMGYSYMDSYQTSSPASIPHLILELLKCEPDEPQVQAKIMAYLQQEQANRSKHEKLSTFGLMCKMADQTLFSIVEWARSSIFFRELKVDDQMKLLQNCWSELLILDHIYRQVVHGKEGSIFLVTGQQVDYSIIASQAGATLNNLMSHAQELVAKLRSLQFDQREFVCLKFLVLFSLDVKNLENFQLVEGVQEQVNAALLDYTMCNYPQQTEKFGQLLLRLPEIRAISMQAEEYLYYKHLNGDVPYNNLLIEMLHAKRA
DNA dC->dU-editing enzyme APOBEC-3A, sequence (P31941 whole entry, the tested form may be a part): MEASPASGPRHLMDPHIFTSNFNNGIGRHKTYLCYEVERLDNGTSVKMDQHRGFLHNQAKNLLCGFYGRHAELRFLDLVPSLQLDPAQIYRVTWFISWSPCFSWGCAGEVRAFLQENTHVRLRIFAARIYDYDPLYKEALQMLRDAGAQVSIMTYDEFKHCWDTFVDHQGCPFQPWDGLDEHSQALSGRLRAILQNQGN
Tumor necrosis factor, sequence (P01375 whole entry): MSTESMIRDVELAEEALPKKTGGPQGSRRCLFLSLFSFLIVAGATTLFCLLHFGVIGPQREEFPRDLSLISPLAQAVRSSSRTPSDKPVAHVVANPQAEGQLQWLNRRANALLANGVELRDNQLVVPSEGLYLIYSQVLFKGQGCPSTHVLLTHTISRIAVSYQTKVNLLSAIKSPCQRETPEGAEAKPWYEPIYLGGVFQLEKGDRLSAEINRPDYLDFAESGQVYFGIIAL
Nucleotide-binding oligomerization domain-containing protein 2, sequence (Q9HC29 whole entry, the tested form may be a part): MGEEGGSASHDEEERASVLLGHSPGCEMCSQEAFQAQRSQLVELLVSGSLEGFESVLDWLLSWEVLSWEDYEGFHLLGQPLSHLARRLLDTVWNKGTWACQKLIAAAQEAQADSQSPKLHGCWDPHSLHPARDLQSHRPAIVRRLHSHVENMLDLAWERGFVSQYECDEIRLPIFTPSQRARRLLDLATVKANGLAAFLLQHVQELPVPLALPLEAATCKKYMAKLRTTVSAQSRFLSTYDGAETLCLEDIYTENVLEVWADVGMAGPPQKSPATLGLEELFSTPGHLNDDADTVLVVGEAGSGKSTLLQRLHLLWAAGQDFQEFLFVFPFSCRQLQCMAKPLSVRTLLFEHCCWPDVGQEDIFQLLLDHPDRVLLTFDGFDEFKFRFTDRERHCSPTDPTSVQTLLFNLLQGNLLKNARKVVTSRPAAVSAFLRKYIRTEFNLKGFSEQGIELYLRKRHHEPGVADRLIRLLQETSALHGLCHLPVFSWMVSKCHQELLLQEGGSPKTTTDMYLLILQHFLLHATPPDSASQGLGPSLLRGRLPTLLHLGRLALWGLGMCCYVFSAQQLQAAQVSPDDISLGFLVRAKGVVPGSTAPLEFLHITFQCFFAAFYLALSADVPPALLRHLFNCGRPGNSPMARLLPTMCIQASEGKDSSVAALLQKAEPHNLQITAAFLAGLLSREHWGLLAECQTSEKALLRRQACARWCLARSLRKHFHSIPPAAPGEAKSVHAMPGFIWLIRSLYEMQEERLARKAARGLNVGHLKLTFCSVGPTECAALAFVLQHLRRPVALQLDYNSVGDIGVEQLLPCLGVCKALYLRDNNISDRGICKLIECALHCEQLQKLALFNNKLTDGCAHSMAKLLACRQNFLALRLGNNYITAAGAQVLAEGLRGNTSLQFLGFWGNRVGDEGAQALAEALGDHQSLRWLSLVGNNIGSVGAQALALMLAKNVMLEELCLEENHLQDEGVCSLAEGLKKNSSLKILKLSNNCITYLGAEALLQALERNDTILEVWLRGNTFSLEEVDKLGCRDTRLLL
Steroidogenic factor 1, sequence (Q13285 whole entry): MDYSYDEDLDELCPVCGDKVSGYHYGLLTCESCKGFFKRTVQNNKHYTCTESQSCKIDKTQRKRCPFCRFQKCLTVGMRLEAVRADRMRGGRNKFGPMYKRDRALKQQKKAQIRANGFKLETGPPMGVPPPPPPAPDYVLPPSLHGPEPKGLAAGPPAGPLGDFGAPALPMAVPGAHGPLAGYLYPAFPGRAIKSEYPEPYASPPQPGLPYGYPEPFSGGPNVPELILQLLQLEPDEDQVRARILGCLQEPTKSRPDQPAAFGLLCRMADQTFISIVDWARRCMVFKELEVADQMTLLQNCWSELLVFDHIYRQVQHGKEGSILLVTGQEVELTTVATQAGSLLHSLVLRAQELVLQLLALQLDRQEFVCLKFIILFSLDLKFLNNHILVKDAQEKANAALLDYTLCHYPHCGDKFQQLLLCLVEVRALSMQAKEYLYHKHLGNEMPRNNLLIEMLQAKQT

SMILES: O=C(Nc1ccc2oc(-c3cccnc3)nc2c1)c1ccc2c(c1)OCCO2
- IC50 [1]: 5.36 µM (active)
- IC50 [2]: 1.61 µM (active)
- IC50 [3]: 1.46 µM (active)
- IC50 [4]: 8.43 µM (active)

SMILES: Cn1ccccc1=Nc1cccc[n+]1C
- IC50 [5]: 6.54 µM (active)
- IC50 [6]: > 100 µM (inactive)
- IC50 [7]: 4.12 µM (active)
- IC50 [8]: 2.8 µM (active)

SMILES: COc1ccc(C(=O)Cn2c(N)nc3ccccc32)cc1
- IC50 [9]: > 20 µM (inactive)
- IC50 [10]: > 20 µM (inactive)
- IC50 (Tumor necrosis factor): > 20 µM (inactive)
- IC50 (HEK293): > 20 µM (inactive)
- IC50 (Interleukin-8 [11]): > 25 µM (inactive)
- IC50 (Interleukin-8 [12]): > 25 µM (inactive)

SMILES: CC(=O)Nc1ccc(NC(=O)CSc2ccc(-c3ccco3)nn2)cc1
- IC50 [13]: > 100 µM (inactive)
- IC50 [14]: 35.9 µM (inactive)
- IC50 (Steroidogenic factor 1): 35.9 µM (inactive)
- IC50 [15]: 35.9 µM (inactive)
- IC50 [16]: 31.1 µM (active)

SMILES: O=S(=O)(c1ccccc1)N1CCCC1c1cccs1 (configuration not stated)
- EC50 [17]: > 100 µM (inactive)
- IC50 [18]: > 100 µM (inactive)

SMILES: CCN(CC)c1ccc(Nc2nc(-c3sc(N)nc3C)cs2)cc1
- Ki [19]: 30.2 µM (inactive)
